Assay in all cases: NCI-60 cell line screen, 48 h
In assay [1] the test system is A549.
In assay [2] the test system is Malme-3M.
Assay [3] relates to T47D.
The subject of assay [4] is BT-549.
For assay [5], the system named is OVCAR-8.
In assay [6] the test system is OVCAR-3.
Assay [7] relates to HCC 2998.
The test system of assay [8] is SK-MEL-5.
The test system of assay [9] is MDA-N.
Assay [10] relates to HOP-92.
Assay [11] deals with NCI-H460.
The test system of assay [12] is KM12.
In assay [13] the test system is OVCAR-5.
Assay [14] relates to SF-268.
Assay [15] relates to HOP-62.
The subject of assay [16] is UACC-257.
In assay [17] the test system is IGROV-1.
The subject of assay [18] is M14.
Assay [19] deals with UACC-62.
The subject of assay [20] is SK-MEL-28.

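Step 1: Grow cells in 96-well plates. Step 2: Expose to compound for 48 hours at 5 concentrations. Step 3: Interpolate endpoints linearly; if unreached, use highest concentration. At the GI50, growth is halved.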 The source made the active and inactive calls. Rule as the data show it: active = GI50 up to about 1.1 µM and inactive = higher.

Take `COc1ccc(C(=O)/C=C/c2ccc(O)c(O)c2)c(OC)c1`: the GI50 is 14 µM (inactive) in assay [1]; 4.65 µM (inactive) in assay [2]; 1.55 µM (inactive) in assay [3]; 3.26 µM (inactive) in assay [4]; 10.8 µM (inactive) in assay [5]; 0.242 µM (active) in assay [6]. In addition, the GI50 is 1.21 µM (inactive) in assay [7]; 1.85 µM (inactive) in assay [8]; 0.454 µM (active) in assay [9]; 28.8 µM (inactive) in assay [10]; 3.04 µM (inactive) in assay [11]; 1.01 µM (active) in assay [12]. Also, the GI50 in [13] was 15.6 µM (inactive); in assay [14], 1.4 µM (inactive); in assay [15] it was 4.32 µM (inactive); in assay [16] it was 3.87 µM (inactive); in [17] it was 0.887 µM (active); in assay [18], 3.99 µM (inactive). Moreover, the figures for the GI50 in assay [19] and in [20] were 2.98 µM (inactive) and 7.6 µM (inactive), respectively.
As for `COC(=O)C1C(O)C(C)C(O)C(C)(O)C=C(C)C2=C3C(=C(C)C(=O)c4c(O)c(c(C)c(OC(C)=O)c43)NC(=O)C(C)=C/C=C\C(C)(O)C(O)C(C)C1O)OCO2` (stereo not given), the GI50 in assay [1] is 88.9 µM (inactive); in assay [2], 33.7 µM (inactive); in assay [3], 67.9 µM (inactive); in assay [4], > 100 µM (inactive); in assay [5], > 100 µM (inactive); in assay [6], 25.7 µM (inactive). Further, the GI50 was 57.4 µM (inactive) in assay [7]; 18.3 µM (inactive) in [8]; 40.3 µM (inactive) in [9]; 24.7 µM (inactive) in [10]; > 100 µM (inactive) in [11]; 80.2 µM (inactive) in assay [12]. The GI50 in [13] was > 100 µM (inactive); in assay [14], 75.2 µM (inactive); in assay [15], > 100 µM (inactive); in assay [16], 28.9 µM (inactive); in [17], 55.6 µM (inactive); in assay [18], 43.6 µM (inactive). For the same compound, the results for the GI50 in assay [19] and in assay [20] were 53.8 µM (inactive) and > 100 µM (inactive), respectively.
For `CCOc1cc(NC(C)=O)ccc1C(=O)NN1C(=O)CSC1c1ccc(O)c(OC)c1` (stereo not given), the GI50 in assay [1] is 38.9 µM (inactive); in assay [2], 46.8 µM (inactive); in assay [3], 32.4 µM (inactive); in assay [4] it was 28 µM (inactive); in [5] it was 23.9 µM (inactive); in assay [6], 58.7 µM (inactive). The GI50 in [7] is 32.1 µM (inactive); in assay [8], 52.1 µM (inactive); in [9], 54.7 µM (inactive); in assay [10] it was 59.7 µM (inactive); in assay [11], 43.5 µM (inactive); in [12], 42.9 µM (inactive). In addition, the GI50 in assay [13] was > 100 µM (inactive); in assay [14], 71.4 µM (inactive); in assay [15], > 100 µM (inactive); in [16], 48.4 µM (inactive); in assay [17], 60.4 µM (inactive); in [18] it was 50.4 µM (inactive). The GI50 in assay [19] was 50.4 µM (inactive); in [20], 84.5 µM (inactive).
Consider `c1ccc2c(c1)CCc1c-2n(CCN2CCOCC2)c2ccccc12`, for which the GI50 was > 100 µM (inactive) in assay [1]; 13.6 µM (inactive) in assay [2]; > 100 µM (inactive) in assay [3]; > 100 µM (inactive) in [4]; > 100 µM (inactive) in assay [5]; > 100 µM (inactive) in assay [6]. The GI50 in assay [7] was 14.3 µM (inactive); in [8], 18.8 µM (inactive); in assay [9], > 100 µM (inactive); in assay [10], 17.8 µM (inactive); in assay [11] it was 26.5 µM (inactive); in [12], 13.5 µM (inactive). Also, the GI50 was > 100 µM (inactive) in assay [13]; > 100 µM (inactive) in assay [14]; 68.4 µM (inactive) in assay [15]; 32.9 µM (inactive) in [16]; 11.7 µM (inactive) in assay [17]; 44 µM (inactive) in assay [18]. For the same compound, the GI50 in assay [19] is > 100 µM (inactive); in assay [20] it was 34.6 µM (inactive).
For the compound `CC1CC[C@@]2(OC1)OC1C[C@H]3[C@@H]4CC[C@H]5CC(OC6OC(CO)C(O)C(OC7OC(CO)C(OC8OC(CO)C(O)C(OC9OC(CO)C(O)C(O)C9O)C8OC8OC(CO)C(O)C(O)C8O)C(O)C7O)C6O)[C@H](O)CC5(C)[C@H]4CCC3(C)C1[C@@H]2C` (stereo not given in full), the GI50 in assay [1] was 9.4 µM (inactive); in assay [2], 8.18 µM (inactive); in [3], 1.37 µM (inactive); in [4], 4.37 µM (inactive); in [5] it was 1.7 µM (inactive); in assay [6], 0.9 µM (active). For the same compound, the GI50 in assay [7] was 1.43 µM (inactive); in assay [8] it was 6.95 µM (inactive); in assay [9], 6.59 µM (inactive); in assay [10] it was 4.88 µM (inactive); in assay [11], 7.06 µM (inactive); in assay [12], 4.79 µM (inactive). Also, the GI50 in [13] was 5.33 µM (inactive); in assay [14], 5 µM (inactive); in assay [15], 2.28 µM (inactive); in [16], 8.75 µM (inactive); in assay [17] it was 1.44 µM (inactive); in [18], 9.04 µM (inactive). In addition, the GI50 in assay [19] is 8.69 µM (inactive); in assay [20], 7.45 µM (inactive).
`Clc1nc2c(C#Cc3ccccc3)ncnc2n1C1CCCCO1` (stereo not given): the GI50 in assay [1] is 16.5 µM (inactive); in [2], 17.6 µM (inactive); in assay [3], 19.1 µM (inactive); in [4], 14.8 µM (inactive); in assay [5], 19.9 µM (inactive); in [6] it was 14.8 µM (inactive). Also, the GI50 is 14.7 µM (inactive) in [7]; 11.6 µM (inactive) in assay [8]; 8.47 µM (inactive) in [9]; 14.8 µM (inactive) in assay [10]; 15.7 µM (inactive) in [11]; 14 µM (inactive) in assay [12]. In addition, the GI50 in assay [13] was 12.6 µM (inactive); in [14], 14 µM (inactive); in [15], 31.2 µM (inactive); in assay [16] it was 15 µM (inactive); in [17] it was 13.5 µM (inactive); in assay [18], 12.1 µM (inactive). Also, the values for the GI50 in [19] and in [20] were 13.4 µM (inactive) and 26.5 µM (inactive), respectively.
`CCOC(=O)COc1ccc2c(C)cc(=O)oc2c1`: the GI50 in [1], in assay [2], in assay [3], in [4], in [5] and in assay [6] was > 100 µM (inactive) in each case. For the same compound, the GI50 in assay [7] is 34.4 µM (inactive); in assay [8] it was > 100 µM (inactive); in [9], > 100 µM (inactive); in assay [10], > 100 µM (inactive); in [11], 45.8 µM (inactive); in assay [12], > 100 µM (inactive). Moreover, the GI50 in [13], in [14], in [15], in assay [16], in [17] and in assay [18] was > 100 µM (inactive) in each case. The GI50 in [19] and in assay [20] was > 100 µM (inactive) in each case.
For the compound `C(=N\Nc1ccc(-c2nc3ccccc3[nH]2)cc1)/c1c(-c2ccc(Cc3ccccc3)cc2)[nH]c2ccccc12`, the GI50 in assay [1] was 6.85 µM (inactive); in [2], 2.49 µM (inactive); in assay [3], 7.18 µM (inactive); in assay [4] it was 4.1 µM (inactive); in [5] it was 7.91 µM (inactive); in assay [6], 9.44 µM (inactive). Besides, the GI50 in assay [7] was 3.83 µM (inactive); in assay [8] it was 6.41 µM (inactive); in assay [9] it was 2.38 µM (inactive); in assay [10] it was 4.09 µM (inactive); in [11], 10.8 µM (inactive); in [12], 4.37 µM (inactive). Moreover, the GI50 was 26.1 µM (inactive) in [13]; 0.925 µM (active) in [14]; 19.6 µM (inactive) in assay [15]; 13.5 µM (inactive) in assay [16]; 4.41 µM (inactive) in assay [17]; 4.48 µM (inactive) in assay [18]. Moreover, the GI50 in assay [19] is 7.69 µM (inactive); in assay [20], 12.9 µM (inactive).
Regarding `NC1=CC(C(=O)c2ccncc2)c2nc3ccccc3nc21` (stereo not given), the GI50 in assay [1] was > 100 µM (inactive); in assay [2], > 100 µM (inactive); in assay [3] it was > 100 µM (inactive); in assay [4], > 100 µM (inactive); in assay [5] it was 63.5 µM (inactive); in assay [6] it was > 100 µM (inactive). In addition, the GI50 is > 100 µM (inactive) in assay [7]; > 100 µM (inactive) in assay [8]; > 100 µM (inactive) in assay [9]; > 100 µM (inactive) in assay [10]; 75.5 µM (inactive) in assay [11]; > 100 µM (inactive) in [12]. The GI50 in assay [13] was > 100 µM (inactive); in assay [14], > 100 µM (inactive); in assay [15] it was 44.2 µM (inactive); in assay [16], > 100 µM (inactive); in [17], 46.6 µM (inactive); in [18] it was > 100 µM (inactive). Also, the GI50 in assay [19] and in [20] was > 100 µM (inactive) throughout.
Regarding `O=C1C2CC(Cl)C(SSC3CC4C(=O)N(SC(Cl)(Cl)C(Cl)Cl)C(=O)C4CC3Cl)CC2C(=O)N1SC(Cl)(Cl)C(Cl)Cl` (stereo not given), the GI50 in [1] was 2.86 µM (inactive); in assay [2], 1.51 µM (inactive); in assay [3] it was 2.25 µM (inactive); in assay [4], 1.7 µM (inactive); in [5] it was 1.45 µM (inactive); in [6], 2.05 µM (inactive). Besides, the GI50 was 4.43 µM (inactive) in assay [7]; 1.97 µM (inactive) in [8]; 1.7 µM (inactive) in assay [9]; 1.61 µM (inactive) in [10]; 2.39 µM (inactive) in assay [11]; 5.04 µM (inactive) in [12]. The GI50 is 17 µM (inactive) in assay [13]; 1.65 µM (inactive) in assay [14]; 2.81 µM (inactive) in [15]; 2.02 µM (inactive) in assay [16]; 1.3 µM (inactive) in assay [17]; 1.21 µM (inactive) in assay [18]. The GI50 in assay [19] was 1.69 µM (inactive); in [20], 2.15 µM (inactive).

The values above are taken from ChEMBL document CHEMBL1201862, “PubChem BioAssay data set” (2004).
